Results reported in patent publication US5814627A, “3, 5-disubstituted and 3, 4, 5-trisubstituted 2-isoxazolines and isoxazoles, process for their preparation and their use as pharmaceuticals” (Hoechst Aktienegesellschaft, priority 1994, dated 1998).

Columns and labels:
[1] = system: polymorphonuclear leucocytes (PMNL); assay: Test 1: Release of proteolytic activity from human PMNL; type: cell-based; conditions: Homo sapiens, PMNL, read-out: Test 1 residual activity (release of proteolytic activity), percent of control
Procedure: Isolation of polymorphonuclear leucocytes (PMNL) from human peripheral blood for carrying out tests 1 and 2 10 ml of human blood were diluted with 10 ml of HBSS (Serva) and underlaid with 15 ml of Lymphoprep (Dr. Molter GmbH, Heidelberg). […] A white ring, composed of mononuclear cells, is located between these two phases. The lowermost phase is composed of erythrocytes which are covered with a white layer of PMNL. The uppermost phase, and also the Lymphoprep and the white ring, were carefully removed using a syringe. The remaining sediment was carefully resuspended in 15 ml of 3% dextran in PM16 (mw: 485,000, Sigma, Deisenhofen). The suspension was then left to stand at room temperature for one hour. During this time, the erythrocytes sedimented while the PMNL remained in the supernatant. The supernatant was removed, diluted with an approximately equal volume of PM16, and centrifuged for 15 minutes at 400×g. Should the PMNL sediment be heavily contaminated with erythrocytes, it is necessary to carry out a hypotonic lysis. To do this, the sediment was resuspended in 750 μl of water. After exactly 15 seconds, the suspension was diluted with approximately 7 ml of PM16 and centrifuged for 10 minutes at 400×g. If necessary, this lysis was repeated once more. Otherwise, the PMNL sediment was resuspended in a suitable medium. 250 μl of PMNL (5·10^6 cells/ml of PBS containing 7.5 mM glucose) were incubated at 37° C. for 20 minutes with 1 μl of test substance. 1 μl of cytochalasin B (5 μg/ml of test mixture) was then added and the mixture was incubated at 37° C. for a further 5 minutes. Following the addition of 1 μl of […] necrosis factor alpha (TNF; 30 ng/ml of test mixture), the incubation was continued for 5 minutes. The release was started using 1 μl of fMLP (10 nmol/l of test mixture). After 60 minutes at 37° C., the reaction was terminated by cooling the samples down to 0° C. The samples were then centrifuged, and the supernatant was removed and frozen down. Cytochalasin B and fMLP were dissolved in DMSO and TNF was diluted with buffer. 50 μl of the supernatant were mixed with 175 μl of buffer (100 mM HEPES, pH 7.5; 500 mM NaCl) in a 96-well microtiter plate. Following the addition of 25 μl of substrate (methoxysuccinyl-[…]-nitroanilide), the extinction of each well was measured at 405 nm after 0, 5, 10, 15, 30 and 60 minutes. […] The interleukin is additionally indicated in test 4.

[2] = system: polymorphonuclear leucocytes (PMNL); assay: Test 2: Release of oxygen radicals from human PMNL; type: cell-based; conditions: read-out: Test 2 residual activity (release of oxygen radicals), percent of control
Procedure: Isolation of polymorphonuclear leucocytes (PMNL) from human peripheral blood for carrying out tests 1 and 2 10 ml of human blood were diluted with 10 ml of HBSS (Serva) and underlaid with 15 ml of Lymphoprep (Dr. Molter GmbH, Heidelberg). The sample was then centrifuged for 25 minutes at 400×g (1600 revolutions per minute, Minifuge 2, Heraeus, Osterode). […] A white ring, composed of mononuclear cells, is located between these two phases. The lowermost phase is composed of erythrocytes which are covered with a white layer of PMNL. The uppermost phase, and also the Lymphoprep and the white ring, were carefully removed using a syringe. The remaining sediment was carefully resuspended in 15 ml of 3% dextran in PM16 (mw: 485,000, Sigma, Deisenhofen). The suspension was then left to stand at room temperature for one hour. During this time, the erythrocytes sedimented while the PMNL remained in the supernatant. The supernatant was removed, diluted with an approximately equal volume of PM16, and centrifuged for 15 minutes at 400×g. Should the PMNL sediment be heavily contaminated with erythrocytes, it is necessary to carry out a hypotonic lysis. To do this, the sediment was resuspended in 750 μl of water. After exactly 15 seconds, the suspension was diluted with approximately 7 ml of PM16 and centrifuged for 10 minutes at 400×g. If necessary, this lysis was repeated once more. Otherwise, the PMNL sediment was resuspended in a suitable medium.
The PMNL were resuspended (5·10^6 cells/ml) in Dulbecco's PBS, supplemented with 7.5 mM glucose. Care must be taken to ensure that the PMNL are free of erythrocytes. 100 μl of PMNL, 700 μl of PBS+glucose and 100 μl of cytochrome C (9.38 mg/ml of PBS+glucose) were mixed in a semi-microcuvette. 100 μl of PMNL, 500 μl of PBS+glucose, 100 μl of cytochalasin B ([…]), 100 μl of TNF (0.05 ng) and 100 μl of cytochrome C (9.38 mg/ml of PBS+glucose) were mixed for the fMLP-induced release of oxygen. Measurements were made in a double-beam photometer meter (Perkin-Elmer 552 S) at a wavelength of 550 nm. The measurement range is 0-1 extinction units. The cuvettes were temperature-equilibrated to 37° C. The reference cuvette additionally contained 10 μl of SOD (6 mg of SOD/ml of PBS+glucose). Following a preincubation of 5 minutes, the reaction is started with 100 μl of inducer. The reaction is started with 1·10^-7 mol of fMLP.
(§1) The values in the table show the concentration of the test substance which was employed in μM and, besides this, the residual activity measured in percent based on the control, which was set to be 100%. The interleukin is additionally indicated in test 4.

[3] = system: cyclooxygenase-dependent thrombocyte aggregation; assay: Test 5: Cyclooxygenase-dependent thrombocyte aggregation; type: cell-based, human; conditions: Homo sapiens, arachidonic acid as inducer, read-out: Test 5 residual activity (cyclooxygenase-dependent thrombocyte aggregation), percent of control
Procedure, shortened: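 Citrated human platelet-rich plasma was preincubated 10 min at 37 °C with test substance diluted 1:30 in 50 mM Tris-HCl pH 8.0, 90 mM NaCl. Aggregation was triggered with arachidonic acid (5 mg/ml, 20 μl) under 800 rpm stirring in an aggregometer. Values are tested concentration (μM) and residual activity as % of control.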

[4] = system: adjuvant/arthritis model; assay: Test 6: antiarthritic effect in the adjuvant/arthritis model; type: in vivo, rat (Wistar-Lewis); conditions: Rattus norvegicus, po, 408 h, daily for 17 days, rat, read-out: Test 6 Paw volume (% inhibition)
Procedure: Male rats of a Wistar-Lewis strain (Mollegaard/Denmark) were used as experimental animals. The body weight is between 160 and 200 g. Subplantar injection of 0.1 ml of Freund's adjuvant (=6 mg of Mycobacterium butyricum suspension, Difco Lab./Detroit, Mich. USA, per ml of heavy white paraffin oil, Merck, Darmstadt) into the root of the tail resulted, on the 10th to 14th day of the experiment, in immunopathological processes and chronic inflammations, particularly in the form of arthritic and periarthritic symptoms, at other sites in the body (secondary lesions). The animals were fed ad libitum with the standard feed Altromin-R, from Altrogge, Lage, and provided with tap water. The animals were given 60 mg of codein per kg as an analgesic from the 14th day to the end of the experiment. The test substances were administered orally as a CMC suspension, in an injection volume of 1 ml/100 g of body weight, on each day (in all for 17 days), beginning on the day of the adjuvant administration. The volumes of each of the hind paws, and the body weight, were measured on the first and on the 18th day of the experiment. Diminution in the increase of paw volume, as compared with the untreated control group, served as the criterion of activity, with the two hind paws being averaged.

[5] = system: tumor cell line 20-10-5S (hybridoma cell line); assay: Test 8: Inhibition of tumor cell proliferation; type: cell-based; conditions: 48 h + 16 h tritiated thymidine incorporation; 20-10-5S cells
Procedure: The tumor cell line 20-10-5S (hybridoma cell line, supplied by ATCC (American Type Culture Collection)), which produces an antibody against mouse T cells) was used for determining the antiproliferative property of test substances. The cells were cultured, at 37° C. and 5% C2, under serum-free conditions in CG medium (cell-growth medium=Iscove-ATL (+albumin+transferrin+lipids); from Vitromex, Vilshofen). Only cells which were in the logarithmic phase of growth were used for the test mixture. The test substances were pipetted in various concentrations (from 1 to 50 μM), together with 4×10^3 20-10-5S cells, into round-bottomedmicrotiter plates (total volume with medium, 200 μl). After an incubation time of 48 h (37° C. and 5% CO2), 25 μl of tritiated thymidine (=0.25 μCi/test mixture, specific activity, 23 Ci/mM) were added to the plates. During the subsequent 16 h, the radioactively labeled thymidine was incorporated into the DNA of the growing cells. The samples were filtered off with suction on glass fiber filters and the incorporated radioactivity was measured using a β counter (Beta Plate System 1205 from Wallac).

[6] = system: PAF-induced asthma attack; assay: Test 7: antiasthmatic effect, PAF-induced asthma attack; type: in vivo; conditions: Cavia porcellus; i.d., 15 minutes before PAF; guinea pig
Procedure: Test 7: Testing for antiasthmatic effect
Anesthetized guinea pigs, which were cannulated in the jugular vein to allow injection of the PAF, were used for testing for antiasthmatic effect. The test preparations were also administered intravenously (i.v.), 5 min before PAF administration, into the blood stream through the same venous cannula, or else administered intraduodenally (i.d.), 15 minutes before the PAF, through an opening in the duodenum which had been installed and cannulated surgically. The bronchial width was recorded in an overflow pneumonogram before and after administering the preparation. Evaluation: ED50 in mg/kg i.d. as compared with the PAF-induced asthma attack.

[7] = system: IL-1α release from mononuclear cells; assay: Test 4: cytokine release from LPS-stimulated mononuclear cells, IL-1α; type: cell-based; conditions: Homo sapiens, read-out: Test 4 residual activity (IL-1α release), percent of control
Procedure: (§2) Test 4. Stimulation of the cytokine release
(§3) Isolation of mononuclear cells from human blood
(§4) 10 ml of human blood, stabilized with 1 ml of 3.8% sodium citrate solution, were diluted with 10 ml of PM16 (Serva, Heidelberg) and underlaid with 15 ml of Lymphoprep (Dr. Molter GmbH, Heidelberg). The samples were centrifuged, at room temperature for 40 minutes, at 400×g (1600 rpm, Minifuge 2, Heraeus, Osterode). The mononuclear cells are visible as a white ring at the Lymphoprep/plasma interface. This ring was carefully removed with a syringe, diluted with an equal volume of PM16, and centrifuged for 10 minutes at 400×g. The sediment was washed with approximately 10 ml of RPMI1640 (+300 mg/l L-glutamine, Gibco, Eggenstein) (Wallis, 1986). After the cells had been resuspended in approximately 1 ml of RPMI1640 (+300 mg/l L-glutamine+25 mM HEPES+100 μg/ml streptomycin+100 μg/ml penicillin), the cell density was determined using a Coulter Counter JT (Coulter Diagnostics) and adjusted to 5*10^6 /ml. Typically, the cells are composed of 90% lymphocytes and 10% monocytes.
230 μl of mononuclear cells were incubated, at 37° C.; 5% CO2 for 20-22 hours (5 hours in the case of IL-6), with 10 μl of test substance ([…]) and 10 μl of lipopolysaccharide (LPS; 500 μg dissolved in 1 ml of DMSO and diluted 1/10 with water prior to beginning the test; from Salmonella abortus equi, Sigma, Deisenhofen). The samples were cooled down to 0° C. in an ice bath and centrifuged in a Sigma centrifuge (2 minutes; 2000 rpm). Aliquots of the supernatant are measured with an ELISA (Biermann, Bad Nauheim). The abbreviation IL stands for interleukin and TNF for tumor necrosis factor alpha.
as §1

[8] = system: TNFα release from mononuclear cells; assay: Test 4: cytokine release from LPS-stimulated mononuclear cells, TNFα; type: cell-based; conditions: Homo sapiens, read-out: Test 4 residual activity (TNFα release), percent of control
Procedure: as §2, §3, §4
230 μl of mononuclear cells were incubated, at 37° C.; 5% CO2 for 20-22 hours (5 hours in the case of IL-6), with 10 μl of test substance (10 μM in DMSO/water, 1/10) and 10 μl of lipopolysaccharide (LPS; 500 μg dissolved in 1 ml of DMSO and diluted 1/10 with water prior to beginning the test; from Salmonella abortus equi, Sigma, Deisenhofen). The samples were cooled down to 0° C. in an ice bath and centrifuged in a Sigma centrifuge (2 minutes; 2000 rpm). Aliquots of the supernatant are measured with an ELISA (Biermann, Bad Nauheim). The abbreviation IL stands for interleukin and TNF for tumor necrosis factor alpha.
as §1

Structure (SMILES) | activity at 10 µM [1] [%] | activity at 100 µM [1] [%] | activity at 10 µM [2] [%] | activity at 10 µM [3] [%] | IC50 [5] [µM] | ED50 [6] [mg/kg] | activity at 10 µM [7] [%] | further results
C[C@@H](O)[C@@H]1CC(c2cc(C(C)(C)C)c(O)c(C(C)(C)C)c2)=NO1 (relative stereo) [Example 19] | 78 | 20 | 94 | 100 | < 5 | – | – | inhibition in vivo at 25 mg/kg ([4]; 25 mg/kg orally): 85%
CC(=O)C1CC(c2cc(C(C)(C)C)c(O)c(C(C)(C)C)c2)=NO1 (centres unmarked) [Example 13] | 77 | 20 | 65 | 98 | 6.1 | ~50 | – | activity at 25 µM ([2]; 25 μM): 22%; inhibition in vivo at 50 mg/kg ([4]; 50 mg/kg orally): 84%
CC(O)C1CC(c2cc(C(C)(C)C)c(O)c(C(C)(C)C)c2)=NO1 (centres unmarked) [Example 18] | – | – | – | – | 5 to 10 | – | 89 | activity at 100 µM ([7]; 100 μM): 36%
CC(C)(C)c1cc(-c2cc(CCCO)on2)cc(C(C)(C)C)c1O [Example 26] | – | – | – | 94 | < 5 | – | – | activity at 10 µM [8]: 88%
CCOC(=O)C(C)(C)OCc1cc(-c2cc(C(C)(C)C)c(O)c(C(C)(C)C)c2)no1 [Example 35] | – | – | – | – | – | – | 84 | activity at 100 µM ([3]; 100 μM): 94%
CC(=O)c1cc(-c2cc(C(C)(C)C)c(O)c(C(C)(C)C)c2)no1 [Example 59, 3-(4-Hydroxy-3,5-di-tert-butylphenyl)-5-acetylisoxazole] | 61 | 35 | 48 | – | 30 | 1 to 3 | – | activity at 1 µM ([1]; 1 μM): 91%; activity at 1 µM ([2]; 1 μM): 135%
